Reference: US11883458B2, “Herb medicine composition for alleviating or treating asthma, and oriental pharmacopuncture solution containing same and injection containing same” (priority 2019, dated 2024)

System: asthma-induced BALB/c mice (ovalbumin)
Test: Ovalbumin-induced asthma in BALB/c mice: white blood cell, eosinophil and IgE measurement
Type: in vivo
Conditions: asthma-induced female BALB/c mice; injected twice a week for 4 weeks; mean of 3 mice; mouse blood
Protocol: Ovalbumin was administered to BALB/c mice to induce asthma. The total white blood cell (WBC) count, eosinophil count, and […] in bronchoalveolar lavage fluid (BALF) were measured.
As experimental animals, BALB/c mice (supplier: Samtako Korea), which have been widely used in asthma tests, were used. Female BALB/c mice were used and were 6 weeks old at the time of acquisition and 7 weeks old at the time of the experiment. After acquisition, the mice were acclimatized in an animal test room for 6 days, and observed at least once a day. During the acclimatization period, the mice were distinguished by skin mark using a red oil magic pen. During the administration and observation period, the mice were distinguished by skin mark using a black oil magic pen. An individual identification card was attached to a breeding cage. The mice were housed in a breeding area under the condition of a temperature of 23±3° C., a relative humidity of 55±15%, a ventilation frequency of 10 to 20 times/hr, an illumination time of 12 hours, and an illuminance of 150 to 300 Lux. During the period of acclimatization and administration, at least four mice were housed in each polycarbonate breeding cage containing an appropriate amount of rug. During the acclimatization period, mice determined to be healthy were weighed and ranked according to weight. The mice were distributed into groups so that the mean weights of each group were equal.
As an asthma inducer, refrigerated ovalbumin (OVA) (catalog No.: A5503, supplier: Sigma Aldrich, Louis, Missouri, USA) was used. As an adjuvant, refrigerated aluminum hydroxide (Alum) (catalog No.: 77161, supplier: Thermo Fisher Scientific Inc, Waltham, Massachussets, USA) was used. […]
After 4 weeks, the measurement of the white blood cell (WBC) count, eosinophil count, and IgE was performed using mouse blood. The mean values thereof were calculated, and the results are illustrated in Table 3 below.

## C[C@@H]1C[C@H]2[C@@H]3CCC4=CC(=O)C=C[C@]4(C)[C@@]3(F)[C@@H](O)C[C@]2(C)[C@@]1(O)C(=O)CO [Positive control, dexamethasone]
  Eosinophil count: 1.41 X10^2 cells/μl
  IgE: 23.45 µg/mL
  WBC count: 39.83 X10^3 cells/μl
